Assay results taken from article PMC11217349, “Development of Nurr1 agonists from amodiaquine by scaffold hopping and fragment growing” (Communications Chemistry, 2024).
Where “and” joins values, the source holds several entries; their conditions need not be identical. Identical values can stand only once.

What was measured:
[1] = target: T1, human Nurr1 (hinge region and ligand binding domain) (Homo sapiens, UniProt P43354); test: Gal4-Nurr1 hybrid reporter gene assay; assay type: cell-based; settings: mean ± SD, n ≥ 3; for EC50: Gal4-Nurr1 hybrid reporter, HEK293T, read-out: EC50(Nurr1); for max. activation: maximum effect vs. 0.1% DMSO control
T1 construct: expressed in transfected cells; host or cells: HEK293T
T1 sequence (P43354 360-595 limits assumed): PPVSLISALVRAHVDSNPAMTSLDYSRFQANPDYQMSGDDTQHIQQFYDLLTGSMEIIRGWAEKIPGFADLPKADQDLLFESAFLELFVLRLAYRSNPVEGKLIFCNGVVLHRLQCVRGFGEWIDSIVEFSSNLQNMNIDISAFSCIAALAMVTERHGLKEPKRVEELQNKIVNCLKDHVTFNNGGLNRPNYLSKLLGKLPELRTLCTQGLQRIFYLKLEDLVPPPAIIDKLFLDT
Procedure: Nurr1 modulation was determined in a Gal4 hybrid reporter gene assay in HEK293T cells (German Collection of Microorganisms and Cell Culture GmbH, DSMZ) using pFR-Luc (Stratagene, La Jolla, CA, USA; reporter), pRL-SV40 (Promega, Madison, WI, USA; internal control) and pFA-CMV-hNurr1-LBD[14], coding for the hinge region and ligand binding domain of the canonical isoform of human Nurr1. […] After 24 h, the medium was changed to Opti-MEM without supplements, and cells were transiently transfected using Lipofectamine LTX reagent (Invitrogen, Carlsbad, CA, USA) according to the manufacturer’s protocol. Five hours after transfection, cells were incubated with the test compounds in Opti-MEM supplemented with penicillin (100 U/mL), streptomycin (100 μg/mL), and 0.1% DMSO for 16 h before luciferase activity was measured using the Dual-Glo Luciferase Assay System (Promega) according to the manufacturer’s protocol on a Tecan Spark luminometer (Tecan Deutschland GmbH, Crailsheim, Germany). Firefly luminescence was divided by Renilla luminescence and multiplied by 1000 resulting in relative light units (RLU) to normalize for transfection efficiency and cell growth. Fold activation was obtained by dividing the mean RLU of the test compound by the mean RLU of the untreated control. All samples were tested in at least three biologically independent experiments in duplicates. For dose-response curve fitting and calculation of EC50 values, the equation “[Agonist] vs. response -- Variable slope (four parameters)” was used in GraphPad Prism (version 7.00, GraphPad Software, La Jolla, CA, USA). Selectivity profiling was performed with identical procedures using pFA-CMV-Nur77-LBD[14], pFA-CMV-NOR-1-LBD[14], pFA-CMV-THRα-LBD[51], pFA-CMV-RARα-LBD[52], pFA-CMV-PPARα-LBD[53], pFA-CMV-PPARγ-LBD[53], pFA-CMV-PPARδ-LBD[53], pFA-CMV-LXRα-LBD[54], pFA-CMV-FXR-LBD[55] and pFA-CMV-hRXRα-LBD[56].

[2] = Parallel artificial membrane permeability assay (PAMPA); assay type: in vitro ADME; settings: 500 µM donor, pH 7.4, 18 h
Procedure: Passive lipid membrane diffusion of test compounds was determined using Merck Millipore MultiScreen Filter Plates (0.45 μm pore diameter, hydrophobic PVDF). The filter inserts were coated with 1% L-α-phosphatidylcholine (Fluka Analytical) in n-dodecan. The test compounds were then added to the donor compartment at a final concentration of 500 µM in a phosphate buffer pH 7.4 containing 5% DMSO with a total volume of 150 µL. The acceptor compartment was filled with 300 µL PBS containing 5% DMSO. Additionally, three equilibrium samples were prepared by directly adding the donor solution to the acceptor compartment for the calculation of log Pe values. The filter plates were incubated for 18 h before the test compound concentrations in the acceptor compartments and in the equilibrium, samples were determined by UV absorbance at 320 nm (34), 360 nm (36), 310 nm (41), or 315 nm (42) with external calibration in a 96 well quartz plate on a SpectraMax M2e microplate reader (Molecular Devices). logPe values were calculated according to the formula published by Sugano and colleagues.

Microsomal stability = assay type: in vitro ADME, rat; settings: male, Sprague-Dawley, pH 7.4; rat liver microsomes, 10 µM, LCMS
Procedure: To determine microsomal stability, test compounds (10 μM) were incubated in 100 mM potassium phosphate buffer at pH 7.4 (total volume of 100 µL) containing 0.5 mg/mL male rat liver microsomes (Sprague-Dawley, no. M9066, Merck KGaA, Darmstadt) and 1 mM NADPH for 0, 15, 30, or 60 min. At the end of the incubation time, microsomal activity was terminated by the addition of 500 µL MeCN and subsequent centrifugation at 1700 g for 5 min. A reaction mixture containing heat-inactivated microsomes (95 °C, 10 min) was prepared as a control for each compound. 5 µL supernatant of each sample was analyzed and the remaining concentrations of the respective test compounds at each time point were determined by LC-MS/MS on an API-3200-QTrap (Sciex) with an Agilent Technologies 1100 series setup including a binary pump (G1311A), a degasser (G1322A), and a Shimadzu SIL 20 A HT autosampler under the control of Analyst 1.6 (Sciex). A XBridge BEH C18 (3.5 µm, 150 mm×3 mm, Waters, protected with a 0.5 µm frit) stationary phase was used in combination with a gradient method starting with 0.1% formic acid in water (A) and MeCN (B) as mobile phase (A:B = 80:20) for 6 min going to A: B = 50:50 after 8 min. 5 µL of supernatant diluted in mobile phase starting conditions was loaded onto the column, separated at a flow rate of 400 µL/min, and detected and quantified per Area of MRM (multiple reaction monitoring) with the following transitions: m/z 381.797/145.000 (34); m/z 395.125/158.200 (36); m/z 409.822/131.000 (41); m/z 407.838/171.100 (42).

[3] = test system: HBEC-5i human brain endothelial cells; test: In vitro blood-brain-barrier model; assay type: in vitro ADME; settings: HBEC-5i trans-well, 10 µM, 60 min
Procedure: Permeation of test compounds through a human brain endothelial cell barrier was evaluated using the Corning Costar 3470 Transwell Plate system (0.4 μm pore diameter with 6.5 mm inserts) and HBEC-5i cells (ATCC, CRL-3245). Filter inserts were coated one day before seeding with 50 μL 0.01% rat-tail collagen type I ([…], Sigma-Aldrich) in PBS. 60,000 HBEC-5i cells in 100 μL HBEC-5i-Medium (DMEM/F12 with 10% FCS and 40 μg/mL ECGS) were seeded after aspiration of the coating-supernatant in each insert with 600 μL HBEC-5i-Medium in each receiver well. After 24 h incubation at 37 °C with 5% CO2, the medium was exchanged to 600 μL T98G cell supernatant in receiver wells and 100 μL fresh HBEC-5i-Medium in inserts. The medium exchange was repeated every second day. On day 7 after seeding, the medium in the receiver wells was replaced by 600 μL Hank's balanced salt solution (HBSS) containing 10 mM HEPES and 0.1% DMSO and 100 μL test compound mixtures (antipyrine and test compound; each at 10 μM) in HBSS containing 10 mM HEPES and 0.1% DMSO were added to inserts. After 60 min incubation, 100 μL samples were taken from the receiver wells and diluted in 400 μL (75%/25% A/B; A=Formic acid 0.1% in water; B = Acetonitrile). Test compound concentrations in the samples were determined by LC-MS/MS on an API-3200-QTrap (Sciex) equipped with an Agilent Technologies 1100 series setup including a binary pump […]), and a Shimadzu […] autosampler under the control of Analyst 1.6 (Sciex). […] B) for 6 min going to (50%:50%) after 8 min. 5 μL of aspirated supernatant diluted in mobile phase starting conditions was loaded onto the column, separated at a flow rate of 400 μL/min, and quantified per Area of MRM (multiple reaction monitoring).

Nurr1 = test system: Nurr1; set-up: method as in PMID 33289551; settings: independent evaluation; cited from earlier work

Row | EC50 [1] [nM] | max. activation [1] [fold] | half-life at 10 µM (Microsomal stability) [min] | Compound | logPe (PAMPA) [2] | logPe (BBB) [3] | binding to Nurr1 (Nurr1)
1 | 160 ± 60 | 1.7 ± 0.1 | 18 ± 2 | COc1ccc(-c2ccc(C(=O)Nc3c(C)nc4c(Cl)cccn34)o2)cc1 [Compound 34] | -5.478 and -5.491 and -5.489 and -5.4212 and -5.4577 |  | 
2 | 120 ± 30 | 2.1 ± 0.2 | 42 ± 5 | Cc1nc2c(Cl)cccn2c1NC(=O)c1ccc(-c2ccc(OC(C)C)cc2)o1 [Compound 41] | -5.684 and -5.708 and -5.674 and -5.7032 and -5.723 and -5.7183 |  | 
3 | 120 ± 60 | 1.5 ± 0.2 | 78 ± 7 | Cc1nc2c(Cl)cccn2c1NC(=O)c1ccc(-c2ccc(OC3CC3)cc2)o1 [Compound 42, N-(8-Chloro-2-methylimidazo[1,2-a]pyridin-3-yl)-5-(4-cyclopropoxyphenyl)furan-2-carboxamide] | -5.857 and -5.822 and -5.789 and -5.846 and -5.806 | -5.049 and -5.059 and -4.946 and -5.046 and -4.96 and -4.965 | 
4 |  |  |  | O=C(Nc1ccccc1)c1cn2cc(-c3ccccn3)ccc2n1 [SR24237] |  |  | no evidence for binding
5 |  |  |  | Cc1cc(=O)n(-c2ccccc2)n1C [antipyrine, reference compound] |  | -4.6402 and -4.7739 and -4.62 and -4.578 and -4.647 | 
